These results are taken from US20250340538A1, “IMIDAZOLONE DERIVATIVES AS INHIBITORS OF PROTEIN KINASES IN PARTICULAR DYRK1A, CLK1 AND/OR CLK4” (PERHA PHARMACEUTICALS, priority 2021, published 2025).

The target of one assay is T1, DYRK1A (Homo sapiens, UniProt Q13627).
T1 construct: GST-fusion or His-tag (not specified per kinase); purchased ProQinase GmbH; host or cells: Sf9 insect cells or E. coli (not specified per kinase)
Kind of assay: Radiometric protein kinase assay (33PanQinase Activity Assay), DYRK1A. To be noted: for IC50: class by IC50 on DYRK1A, from dose-response curves, read-out: Potency Class DYRK1A; for Selectivity Class DYRK1A vs. CLK1: ratio of IC50 on CLK1 over IC50 on DYRK1A; for Selectivity Class DYRK1A vs. DYRK1B: ratio of IC50 on DYRK1B over IC50 on DYRK1A. The format is biochemical. On the procedure: The IC50 profile of all compounds was determined using 12 protein kinases (CDK2/cyclin E, CK1ε, CLK1, 2, 3, 4, DYRK1A, 1B, 2, 3, 4, GSK3β).
(§1) The compounds were provided as […] in 100% DMSO. Prior to testing, the 1 μM stock solutions were subjected to a serial, semi-logarithmic dilution using 100% DMSO as a solvent. […] In the process, 90 μl H2O were added to each well of each compound dilution plate. To minimize potential precipitation, the H2O was added to each plate only a few minutes before the transfer of the compound solutions into the assay plates. The plate was shaken thoroughly, resulting in a compound dilution plate/10% DMSO.
(§2) For the assays (see below), 5 μL solution from each well of the compound dilution plates/10% DMSO were transferred into the assay plates. The final volume of the assay was 50 μL. All compounds were tested at 10 final assay concentrations in the range from 10 μM to 30 nM. The final DMSO concentration in the reaction cocktails was 1% in all cases.
(§3) All protein kinases provided by ProQinase were expressed in Sf9 insect cells or in E. coli as recombinant GST-fusion proteins or His-tagged proteins, either as full-length or enzymatically active fragments. All kinases were produced from human cDNAs and purified by either GSH-affinity chromatography or immobilized metal. Affinity tags were removed from a number of kinases during purification. The purity of the protein kinases was examined by SDS-PAGE/Coomassie staining, the identity was checked by mass spectroscopy.
(§4) A radiometric protein kinase assay (33PanQinase® Activity Assay) was used for measuring the kinase activity of the 12 protein kinases. All kinase assays were performed in 96-well FlashPlates™ from PerkinElmer (Boston, MA, USA) in a 50 μL reaction volume. The reaction cocktail was pipetted in four steps in the following order: • 25 μL of assay buffer (standard buffer/[γ-^33P]-ATP), • 10 μL of ATP solution (in H2O), • 5 μL of test compound (in 10% DMSO), • 10 μL of enzyme/substrate mixture.
(§5) The reaction cocktails were incubated at 30° C. for 60 minutes. The reaction was stopped with 50 μL of 2% (v/v) H3PO4, plates were aspirated and washed two times with 200 μL 0.9% (w/v) NaCl. Incorporation of ^33Pi was determined with a microplate scintillation counter (Microbeta, Wallac). The IC50 values for all compounds were calculated from the dose response curves

Another assay has as its target T2, CLK1 (Homo sapiens, UniProt P49759).
T2 construct: GST-fusion or His-tag (not specified per kinase); purchased ProQinase GmbH; host or cells: Sf9 insect cells or E. coli (not specified per kinase)
Kind of assay: Radiometric protein kinase assay (33PanQinase Activity Assay), CLK1. Type of assay: biochemical. To be noted: class by IC50 on CLK1, from dose-response curves; read-out: Potency Class CLK1. On the procedure:
Assays were performed by ProQinase GmbH (Engesserstr. 4, D-79108 Freiburg, Germany. www.proqinase.com). The IC50 profile of all compounds was determined using 12 protein kinases (CDK2/cyclin E, CK1ε, CLK1, 2, 3, 4, DYRK1A, 1B, 2, 3, 4, GSK3β).
as §1, §2, §3, §4, §5
As a parameter for assay quality, the Z′-factor (Zhang et al., J. Biomol. Screen. 2: 67-73, 1999) for the low and high controls of each assay plate (n=8) was used. ProQinase's criterion for repetition of an assay plate is a Z′-factor below 0.4 (Iversen et al., J. Biomol. Screen. 3: 247-252, 2006).

The structures appear in SMILES notation. Some results are limits rather than exact numbers.

T2 sequence (P49759 whole entry, the tested form may be a part): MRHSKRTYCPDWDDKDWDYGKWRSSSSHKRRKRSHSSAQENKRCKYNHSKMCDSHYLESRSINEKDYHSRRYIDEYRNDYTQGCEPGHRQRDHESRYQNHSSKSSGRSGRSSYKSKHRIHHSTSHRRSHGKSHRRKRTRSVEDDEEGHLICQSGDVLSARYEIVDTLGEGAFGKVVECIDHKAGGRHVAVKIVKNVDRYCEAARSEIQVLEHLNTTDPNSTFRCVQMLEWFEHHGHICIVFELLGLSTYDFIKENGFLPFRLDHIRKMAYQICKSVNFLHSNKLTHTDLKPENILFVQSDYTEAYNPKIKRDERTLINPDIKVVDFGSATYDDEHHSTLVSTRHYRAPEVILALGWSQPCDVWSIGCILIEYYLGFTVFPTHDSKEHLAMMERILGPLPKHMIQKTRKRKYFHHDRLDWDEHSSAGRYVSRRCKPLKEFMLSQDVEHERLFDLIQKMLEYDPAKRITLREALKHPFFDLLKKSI

For `O=C1NC(N[C@@H]2CCCOC2)=N/C1=C\c1ccc2nccnc2c1` [Compound 39, (4Z)-4-(quinoxalin-6-ylmethylene)-2-[[(3R)-tetrahydropyran-3-yl]amino]-1H-imidazol-5-one], at DYRK1A, the IC50 lay within 25 to 50 nM; the “Selectivity Class DYRK1A vs. CLK1” value was “III (ratio between 0.5 and 2 fold)”; the “Selectivity Class DYRK1A vs. DYRK1B” value is “II (ratio between 2 and 10 fold)”. In addition, the IC50 on CLK1 is more than 50 nM.
Take `O=C1NC(N[C@@H]2COCC[C@H]2O)=N/C1=C\c1ccc2nccnc2c1` [Compound 40, (4Z)-2-[[(3R,4R)-4-Hydroxytetrahydropyran-3-yl]amino]-4-(quinoxalin-6-ylmethylene)-1H-imidazol-5-one]: at DYRK1A, the IC50 is more than 50 nM; the “Selectivity Class DYRK1A vs. CLK1” value was “III (ratio between 0.5 and 2 fold)”; the “Selectivity Class DYRK1A vs. DYRK1B” value was “II (ratio between 2 and 10 fold)”. Also, at CLK1, the IC50 was more than 50 nM.
Regarding `O=C1NC(NC2COCCOC2)=N/C1=C\c1ccc2nccnc2c1` [Compound 42, (4Z)-2-(1,4-dioxepan-6-ylamino)-4-(quinoxalin-6-ylmethylene)-1H-imidazol-5-one], on DYRK1A, the IC50 was more than 50 nM; the “Selectivity Class DYRK1A vs. CLK1” value was “III (ratio between 0.5 and 2 fold)”; the “Selectivity Class DYRK1A vs. DYRK1B” value was “II (ratio between 2 and 10 fold)”. Also, on CLK1, the IC50 is more than 50 nM.
In the case of `O=C1NC(NC2CCCCC2)=N/C1=C\c1ccc2ncccc2c1` [Compound 43, (4Z)-2-(Cyclohexylamino)-4-(6-quinolylmethylene)-1H-imidazol-5-one], on DYRK1A, the IC50 was more than 50 nM; the “Selectivity Class DYRK1A vs. CLK1” value is “III (ratio between 0.5 and 2 fold)”; the “Selectivity Class DYRK1A vs. DYRK1B” value is “II (ratio between 2 and 10 fold)”. Further, on CLK1, the IC50 was more than 50 nM.
Consider `O=C1NC(NC2CCCCCC2)=N/C1=C\c1ccc2ncccc2c1` [Compound 44, (4Z)-2-(cycloheptylamino)-4-(6-quinolylmethylene)-1H-imidazol-5-one], for which, at DYRK1A, the IC50 is more than 50 nM; the “Selectivity Class DYRK1A vs. CLK1” value was “III (ratio between 0.5 and 2 fold)”; the “Selectivity Class DYRK1A vs. DYRK1B” value was “II (ratio between 2 and 10 fold)”. The IC50 on CLK1 is more than 50 nM.
Consider `O=C1NC(NCC2CCCCC2)=N/C1=C\c1ccc2ncccc2c1` [Compound 45, (4Z)-2-(Cyclohexylmethylamino)-4-(6-quinolylmethylene)-1H-imidazol-5-one], for which, at DYRK1A, the IC50 is more than 50 nM; the “Selectivity Class DYRK1A vs. CLK1” value was “IV (ratio between 0.1 and 0.5 fold)”; the “Selectivity Class DYRK1A vs. DYRK1B” value was “II (ratio between 2 and 10 fold)”. Further, the IC50 at CLK1 was more than 50 nM.
For `CC(C)C[C@H](CO)NC1=N/C(=C\c2ccc3ncccc3c2)C(=O)N1` [Compound 46, (4Z)-2-[[(1R)-1-(hydroxymethyl)-3-methyl-butyl]amino]-4-(6-quinolylmethylene)-1H-imidazol-5-one], on DYRK1A, the IC50 lay within 10 to 25 nM; the “Selectivity Class DYRK1A vs. CLK1” value is “II (ratio between 2 and 10 fold)”; the “Selectivity Class DYRK1A vs. DYRK1B” value is “II (ratio between 2 and 10 fold)”. On CLK1, the IC50 was more than 50 nM.
On to `COC[C@@H](CC(C)C)NC1=N/C(=C\c2ccc3ncccc3c2)C(=O)N1` [Compound 47, (4Z)-2-[[(1R)-1-(methoxymethyl)-3-methyl-butyl]amino]-4-(6-quinolylmethylene)-1H-imidazol-5-one], for which, at DYRK1A, the IC50 lay within 25 to 50 nM; the “Selectivity Class DYRK1A vs. CLK1” value is “II (ratio between 2 and 10 fold)”; the “Selectivity Class DYRK1A vs. DYRK1B” value is “II (ratio between 2 and 10 fold)”. In addition, the IC50 at CLK1 is more than 50 nM.
Regarding `O=C1NC(NCc2ccccc2)=N/C1=C\c1ccc2ncccc2c1` [Compound 51], on DYRK1A, the IC50 is more than 50 nM; the “Selectivity Class DYRK1A vs. CLK1” value is “IV (ratio between 0.1 and 0.5 fold)”; the “Selectivity Class DYRK1A vs. DYRK1B” value is “II (ratio between 2 and 10 fold)”. Further, the IC50 at CLK1 was more than 50 nM.
Consider `COC[C@H](NC1=N/C(=C\c2ccc3ncccc3c2)C(=O)N1)c1ccccc1` [Compound 52, (4Z)-2-[[(1R)-2-methoxy-1-phenyl-ethyl]amino]-4-(6-quinolylmethylene)-1H-imidazol-5-one], for which, on DYRK1A, the IC50 was more than 50 nM; the “Selectivity Class DYRK1A vs. CLK1” value is “III (ratio between 0.5 and 2 fold)”; the “Selectivity Class DYRK1A vs. DYRK1B” value was “II (ratio between 2 and 10 fold)”. For the same molecule, on CLK1, the IC50 was more than 50 nM.
With `Cc1cnc(CNC2=N/C(=C\c3ccc4ncccc4c3)C(=O)N2)cn1` [Compound 53, (4Z)-2-[(5-Methylpyrazin-2-yl)methylamino]-4-(6-quinolylmethylene)-1H-imidazol-5-one], at DYRK1A, the IC50 was more than 50 nM; the “Selectivity Class DYRK1A vs. CLK1” value was “IV (ratio between 0.1 and 0.5 fold)”; the “Selectivity Class DYRK1A vs. DYRK1B” value was “III (ratio between 0.5 and 2 fold)”. Further, on CLK1, the IC50 was more than 50 nM.
On to `Cn1ccc(NC2=N/C(=C\c3ccc4ncccc4c3)C(=O)N2)n1` [Compound 54, (4Z)-2-[(1-methylpyrazol-3-yl)amino]-4-(6-quinolylmethylene)-1H-imidazol-5-one], for which, on DYRK1A, the IC50 was more than 50 nM; the “Selectivity Class DYRK1A vs. CLK1” value is “III (ratio between 0.5 and 2 fold)”; the “Selectivity Class DYRK1A vs. DYRK1B” value is “II (ratio between 2 and 10 fold)”. The IC50 on CLK1 is more than 50 nM.
As to `O=C1NC(N[C@@H]2CCOC2)=N/C1=C\c1ccc2ncccc2c1` [Compound 55, (4Z)-4-(6-Quinolylmethylene)-2-[[(3R)-tetrahydrofuran-3-yl]amino]-1H-imidazol-5-one], on DYRK1A, the IC50 was more than 50 nM; the “Selectivity Class DYRK1A vs. CLK1” value is “III (ratio between 0.5 and 2 fold)”; the “Selectivity Class DYRK1A vs. DYRK1B” value is “III (ratio between 0.5 and 2 fold)”. In addition, the IC50 on CLK1 is more than 50 nM.
In the case of `O=C1NC(N[C@@H]2CCCOC2)=N/C1=C\c1ccc2ncccc2c1` [Compound 56, (4Z)-4-(6-quinolylmethylene)-2-[[(3R)-tetrahydropyran-3-yl]amino]-1H-imidazol-5-one], on DYRK1A, the IC50 is more than 50 nM; the “Selectivity Class DYRK1A vs. CLK1” value is “III (ratio between 0.5 and 2 fold)”; the “Selectivity Class DYRK1A vs. DYRK1B” value was “II (ratio between 2 and 10 fold)”. The IC50 on CLK1 was more than 50 nM.
On to `O=C1NC(NC2CCCCCC2)=N/C1=C\c1ccc2cnccc2c1` [Compound 57, (4Z)-2-(cycloheptylamino)-4-(6-isoquinolylmethylene)-1H-imidazol-5-one], for which, on DYRK1A, the IC50 was more than 50 nM; the “Selectivity Class DYRK1A vs. CLK1” value is “III (ratio between 0.5 and 2 fold)”; the “Selectivity Class DYRK1A vs. DYRK1B” value was “III (ratio between 0.5 and 2 fold)”. In addition, the IC50 on CLK1 was more than 50 nM.
In the case of `O=C1NC(NCC2CCCCC2)=N/C1=C\c1ccc2cnccc2c1` [Compound 58, (4Z)-2-(Cyclohexylmethylamino)-4-(6-isoquinolylmethylene)-1H-imidazol-5-one], on DYRK1A, the IC50 was more than 50 nM; the “Selectivity Class DYRK1A vs. CLK1” value was “IV (ratio between 0.1 and 0.5 fold)”; the “Selectivity Class DYRK1A vs. DYRK1B” value was “III (ratio between 0.5 and 2 fold)”. In addition, the IC50 at CLK1 was more than 50 nM.
Turning to `CC(C)C[C@H](CO)NC1=N/C(=C\c2ccc3cnccc3c2)C(=O)N1` [Compound 59, (4Z)-2-[[(1R)-1-(hydroxymethyl)-3-methyl-butyl]amino]-4-(6-isoquinolylmethylene)-1H-imidazol-5-one], at DYRK1A, the IC50 was more than 50 nM; the “Selectivity Class DYRK1A vs. CLK1” value was “III (ratio between 0.5 and 2 fold)”; the “Selectivity Class DYRK1A vs. DYRK1B” value was “III (ratio between 0.5 and 2 fold)”. At CLK1, the IC50 was more than 50 nM.
